Data: US20240425457A1, “COMPOSITIONS AND METHODS FOR SUPPRESSING AND/OR TREATING METABOLIC DISEASES AND/OR A CLINICAL CONDITION THEREOF” (CK Biotech Inc., priority 2018, published 2024)
In brackets after ≈: the same amount, converted by molar mass. Entries after “also recorded” stand apart in the source; their conditions may differ.

Key:
[1] = system: HFD+STZ-induced diabetes mice; experiment: HFD-fed and STZ-induced diabetes mice; assay type: in vivo
From the text: Animals. The generation of Cxxc5^−/− mice has been described previously. Cxxc5 heterozygous mice were intercrossed for four generations to obtain littermate wild-type and Cxxc5^−/− mice and were maintained on a C57BL/6 background. Six-week-old Cxxc5^+/+ and Cxxc5^−/− mice were fed HFD for 8 weeks. Wild-type male C57BL/6 mice (KOATECH, Seoul, Korea) were fed HFD consisting of 60% calories from fat (Research Diet, D12492) for 8 weeks. To validate that the insulin resistance mouse model was successfully established, fasting glucose levels were assessed with a One Touch Ultra glucometer (LifeScan). Subsequently, each HFD-fed mouse with a fasting glucose level higher than 16.7 mmol/L was orally administered A3334 (25 mg kg^−1), sitagliptin (50 mg kg^−1), or metformin (100 mg kg^−1) each day for 5 days at weeks 8 and 12. After the removal of the drugs, mice were maintained for 3 weeks on the HFD. To monitor pancreas regeneration, six-week-old Cxxc5^+/+ and Cxxc5^−/− mice were fed an HFD as above. After dietary treatment for 4 weeks, the mice were intraperitoneally injected with STZ (50 mg/kg/d) for 1 week and the control group were injected with saline. After 2 weeks, Cxxc5^+/+ mice were administered A3334 (25 mg kg^−1) and sitagliptin (50 mg kg^−1) per day by oral gavage for 4 weeks. For GTT or ITT, mice were injected with D-glucose (1.5 g/kg body weight) after overnight starvation or human insulin (0.75 units/kg body weight) after 4 h starvation, respectively. Tail blood was drawn at 0, 15, 30, 60, 120, 180 min intervals and blood glucose level was measured with a One Touch Ultra glucometer. All mice were maintained under temperature-controlled and light-controlled (standard 12 h light/dark cycle) conditions and provided with food and water ad libitum. All protocols were reviewed and approved by the Institutional Review Board of Severance Hospital, Yonsei University College of Medicine (09-013).
β-Cell and α-cell mass analyses. All of the β-cell, α-cell and the cross-sectional area of all pancreatic tissue were quantified. Total β-cell and α-cell area and total pancreas mass for each animal was calculated as the sum of the determinations from each of the 8-10 segments of pancreas. A total of 10-15 beta cells was counted for each pancreas.
A3334 suppressed diabetes induced by multiple low-dose STZ-induced diabetes. Referring now to FIG. 40A-40G, C57BL/6N mice were induced diabetes by HFD for 8 weeks, and induced diabetes by injection of 50 mpk streptozotosin (STZ) for 1 week. After 2 weeks, A3334 (25 mpk) or SITA (25 mpk) was applied for 4 more weeks, histological analyses of pancreas were done.

db/db diabetes mice = experiment: db/db diabetes mice; assay type: in vivo; details: 1 and 2 weeks of treatment
[2] = solubility of A3334 in oil or surfactants (LC/MS/MS); assay type: physicochemical; details: 37 °C, thermodynamic from solid
Experimental: To determine emulsion solution, solubility of A3334, for example, is measured in the several oil and surfactants. A3334 is mixed with oil or surfactants (1 ml) and vortexed for 30 min. The equilibrium state was reached by shaking for 72 hours at 37° C. with 50 rpm speed in an incubator, then centrifuged at 16,100×g for 5 min. The supernatant was diluted with methanol and analyzed by LC/MS/MS (see e.g., Table 7).
‘Waters xevo TQ MS-ACQUITY UPLC System’ is used as an analyses equipment. ACQUITY UPLC® BEH(C18, 1.7 μm, 2.1×50 mm) column was used for analyses at room temperature. Mobile phase is used after filtration of deionized distilled water including 0.1% formic acid and acetonitrile including 0.1% formic acid (30:70, v/v) with […] membrane filter. The flow rate is 0.25 ml/min and it is analyzed by injection of 0.5 μl sample. There are LC/MS/MS conditions for Decursin analysis; Cone 38 V, Collison 32 V. Precursor ion and daughter ion are monitored 329 and 229 m/z, respectively.

Wnt/β-catenin signaling = Wnt/β-catenin signaling (TOPFlash) reporter luciferase assay in HEK293-TOP cells; assay type: cell-based
Experimental: Luciferase reporter assay. HEK293-TOP cells were seeded in 24-well plates. Cells were treated with A3334 at a concentration of 1, 5, and 10 μM for 24 h. Total cell lysates were extracted with 35 μl of 5× Reporter Lysis Buffer per well according to the manufacturer's instructions (Promega). A total of 35 μl of luciferin was added and luciferase activity was measured using a Fluorstar Optima microplate reader.
Wnt/β-catenin signaling reporter luciferase assay. HEK293-TOP cells were seeded were seeded in 96-well plates at a density of 2.5×10^4 cells per well. Cells were treated with individual chemicals at a concentration of 1, 5, 10 µM for 24 h. Total cell lysates were extracted with 25 µl of 5× Reporter Lysis Buffer per well according to the manufacturer's instruction (Promega, Madison, WI). Luciferin (25 µl) was added and luciferase activity was measured using FLUOSTAR (BMG labtech, Offenburg, Germany).

[3] = system: HFD-induced diabetes mice; experiment: HFD-induced diabetes mice, A3334 versus rosiglitazone, one 5-day course; assay type: in vivo
From the text: Referring now to FIG. 37A-37E, C57BL/6N mice were fed HFD for 8 weeks to induce diabetes. Then, the mice were maintained on HFD and treated with either 25 mpk A3334 or 25 mpk rosiglitazone (RSG) once per day for next 5 days. Then, the mice were maintained HFD condition without any drug treatments (e.g., A3334 or RSG) for the next several weeks. Rosiglitazone (RSG) is a diabetes drug in thiazolidinedione (TZD) class which works as an insulin sensitizer functioning via binding PPAR in fat cells.
Referring now to FIG. 45A-45F, C57BL/6N mice were induced diabetes by HFD for 8 weeks, and then treated with A3334 (25 mpk) or RSG (25 mpk) once per day for 5 days starting at week 8 under HFD condition. Animals were sacrificed at week 11.

[4] = 25 mpk, 5 days from week 8, sacrifice week 11
[5] = HFD 8 weeks, then 25 mpk once per day for 5 days

In the case of `COc1ccc2c(c1)/C(=C1/Nc3ccccc3/C1=N\O)C(=O)N2` [Compound A3334, 5-Methoxyindirubin-3′-oxime], the body weight [1] is reported as “slightly increased”, the “proliferative status of β-cells (PCNA+)” value [1] is reported as “exhibited normal proliferative status after the A3334 treatment” and the “glucose tolerance test and insulin tolerance test” value ([1]; 4 weeks p.o.) is reported as “improved the results from the glucose tolerance test (GTT) and insulin tolerance test (ITT)”. The “blood / fasting glucose level” value ([1]; A3334 25 mpk, SITA 25 mpk, 4 weeks) was “lowered the glucose level; also recorded: more significantly lowered by A3334 compared to that by SITA”, the “β-cell and α-cell mass” value ([1]; IHC insulin and glucagon) was “increased and decreased, respectively, by the A3334 treatment” and the “pancreatic islets / β-cells (insulin, β-catenin, PCNA, Pdx-1)” value ([1]; histology/IHC) was “restores β-cell mass and functions; also recorded: showed normal islets with insulin secretion and increased expression levels of β-catenin, PCNA, and Pdx-1; also recorded: mostly protected with the A3334 treatment”. The fasting glucose level (db/db diabetes mice) was “reduces fasting glucose levels”, the solubility at 72 h ([2]; oil or lipid, Oil: Olive oil) was 0.83 mg/mL (≈ 2.7 mM) and the solubility at 72 h ([2]; oil or lipid, Oil: Sunflower oil) was 1.35 mg/mL (≈ 4.39 mM). It also gave a solubility at 72 h ([2]; organic solvent or mixture, Co-Surfactant: Propylene glycol) of 0.25 mg/mL (≈ 0.814 mM), a solubility at 72 h ([2]; organic solvent or mixture, Co-Surfactant: Transcutor P) of 1.15 mg/mL (≈ 3.74 mM) and a solubility at 72 h ([2]; KOLLIPHOR EL (listed as oil), aqueous with cosolvent or surfactant or cyclodextrin, Oil: KOLLIPHOR EL) of 5.4 mg/mL (≈ 17.6 mM). For the same compound, the solubility at 72 h ([2]; PEG 400 (co-surfactant), organic solvent or mixture, Co-Surfactant: PEG 400) was 3.1 mg/mL (≈ 10.1 mM), the solubility at 72 h ([2]; Tween 20 (surfactant), aqueous with cosolvent or surfactant or cyclodextrin, Surfactants: Tween 20) was 4.58 mg/mL (≈ 14.9 mM) and the solubility at 72 h ([2]; Tween 80 (surfactant), aqueous with cosolvent or surfactant or cyclodextrin, Surfactants: Tween 80) was 4.92 mg/mL (≈ 16 mM). The “Wnt/β-catenin (TOPFlash) reporter activity” value (Wnt/β-catenin signaling) was “dose-dependent increment of the TOPFlash reporter activity”, the liver steatosis [3, 4] was “suppressed by A3334” and the “mRNA levels of lipogenesis markers in liver” value [3, 4] was “suppressed by A3334”. The “serum insulin and total cholesterol levels” value [3, 4] was “abolished by A3334”, the “ALT and AST in blood serum” value [3, 5] was “not evident” and the “GTT and ITT” value [3, 5] was “significant reduction of both GTT and ITT”. The body weight gain [3, 5] was “suppressed the body weight gain induced by HFD”, the “fasting glucose level after termination of drug treatment” value [3, 5] was “maintained at low level for several weeks” and the “CXXC5, β-catenin, crown like structures, PPARγ and macrophage markers” value ([3]; HFD 8 weeks, then 25 mpk once per day for 5 days, immunostaining) was “suppressed overexpression of CXXC5, increased expressions of β-catenin, suppressed formation of crown like structures (CRC), and suppressed the expression of PPARγ and macrophage markers”. The “PPARγ mRNA level” value ([3]; white adipose tissue, 25 mpk) was “not increased by A3334”, the “mRNA of M1 and M2 macrophage markers” value ([3]; white adipose tissue, 25 mpk) was “decreased and increased by A3334, respectively” and the “mRNA of Wnt/β-catenin signaling target genes (Dvl1, Wisp1, Fosl1)” value ([3]; white adipose tissue, 25 mpk) was “increased by A3334”.
